In ChEMBL document CHEMBL4376871, “Synthesis and anti-cancer activity studies of dammarane-type triterpenoid derivatives” (Eur J Med Chem, 2020) one finds IC50 data, which are given here for 17 compounds.

Test [1] concerns MCF7. Briefly: Antiproliferative activity against human MCF7 cells incubated for 48 hrs and measured after 4 hrs by MTT assay. It is filed as functional, cell-based. For orientation: Tetrazolium assays rely on reduction of a dye to a coloured formazan, in cell work by metabolically active cells.
In test [2] the test system is PC-3. Kind of test: Antiproliferative activity against human PC3 cells incubated for 48 hrs and measured after 4 hrs by MTT assay. It is filed as functional, cell-based.
Test [3] relates to A549. Briefly: Antiproliferative activity against human A549 cells incubated for 48 hrs and measured after 4 hrs by MTT assay. It is filed as functional, cell-based.
A short description of test [4]: Cytotoxicity against human IOSE-144 cells incubated for 48 hrs and measured after 4 hrs by MTT assay. It is filed as cell-based.
In test [5] the test system is SGC-7901. Kind of test: Antiproliferative activity against human SGC7901 cells incubated for 48 hrs and measured after 4 hrs by MTT assay. The format is functional, cell-based.
Test [6] concerns MGC-803. Kind of test: Antiproliferative activity against human MGC803 cells incubated for 48 hrs and measured after 4 hrs by MTT assay. The format is functional, cell-based.

A word on the IC50: it is the concentration that gives 50% inhibition. Lower therefore signals greater potency in that assay. For `CC(C)(O)CCC[C@@](C)(O)[C@H]1CC[C@]2(C)[C@@H]1[C@H](O)C[C@@H]1[C@@]3(C)C/C(=C\c4cccc(Br)c4)[C@H](O)C(C)(C)[C@@H]3CC[C@]12C`, the half-maximal inhibitory concentration (IC50) in test [1] is more than 100 µM; in test [2], more than 100 µM; in test [3], more than 100 µM; in test [4] it was more than 100 µM; in test [5] it was more than 100 µM; in test [6] it was 18.8 µM.
As to `CC(C)(O)CCC[C@@](C)(O)[C@H]1CC[C@]2(C)[C@@H]1[C@H](O)C[C@@H]1[C@@]3(C)CC[C@H](NC(=O)C4CCNCC4)C(C)(C)[C@@H]3CC[C@]12C`, the IC50 in test [1] was 25.2 µM; in test [2], 34.1 µM; in test [3], 20.3 µM; in test [4], more than 100 µM; in test [5] it was 32.4 µM; in test [6], 25.5 µM.
As for `CC(C)(O)CCC[C@@](C)(O)[C@H]1CC[C@]2(C)[C@@H]1[C@H](O)C[C@@H]1[C@@]3(C)C/C(=C\c4cccc(F)c4)[C@H](O)C(C)(C)[C@@H]3CC[C@]12C`, the half-inhibitory concentration (IC50) in test [1] is more than 100 µM; in test [2], more than 100 µM; in test [3] it was more than 100 µM; in test [4] it was more than 100 µM; in test [5], more than 100 µM; in test [6], 56.1 µM.
As to `CC(C)(O)CCC[C@@](C)(O)[C@H]1CC[C@]2(C)[C@@H]1[C@H](O)C[C@@H]1[C@@]3(C)CC[C@H](N)C(C)(C)[C@@H]3CC[C@]12C`, the IC50 in test [1] is 13.3 µM; in test [2], 34 µM; in test [3], 7.68 µM; in test [4] it was more than 100 µM; in test [5], 53.1 µM; in test [6] it was 13.8 µM.
Regarding `CC(C)(O)CCC[C@@](C)(O)[C@H]1CC[C@]2(C)[C@@H]1[C@H](O)C[C@@H]1[C@@]3(C)CC[C@H](OC(=O)C4CCCN(C(=O)OC(C)(C)C)C4)C(C)(C)[C@@H]3CC[C@]12C` (some centres not stated), the IC50 in test [1] is 26.7 µM; in test [2], 23.6 µM; in test [3], 22.2 µM; in test [4] it was more than 100 µM; in test [5], 22.3 µM; in test [6], 22.2 µM.
Turning to `CC(C)(O)CCC[C@@](C)(O)[C@H]1CC[C@]2(C)[C@@H]1[C@H](O)C[C@@H]1[C@@]3(C)C/C(=C\c4ccc(Br)cc4)[C@H](O)C(C)(C)[C@@H]3CC[C@]12C`, the IC50 is more than 100 µM in test [1]; 16.5 µM in test [2]; 38.6 µM in test [3]; more than 100 µM in test [4]; more than 100 µM in test [5]; 26.1 µM in test [6].
Take `CC(C)(O)CCC[C@@](C)(O)[C@H]1CC[C@]2(C)[C@@H]1[C@H](O)C[C@@H]1[C@@]3(C)C/C(=C\c4ccc([N+](=O)[O-])cc4)[C@H](O)C(C)(C)[C@@H]3CC[C@]12C`: the IC50 in test [1] was 49.4 µM; in test [2], 58.1 µM; in test [3] it was 34.2 µM; in test [4] it was more than 100 µM; in test [5], 47.2 µM; in test [6], 23.2 µM.
For the compound `CC(C)(O)CCC[C@@](C)(O)[C@H]1CC[C@]2(C)[C@@H]1[C@H](O)C[C@@H]1[C@@]3(C)C/C(=C\c4ccc(C(F)(F)F)cc4)C(=O)C(C)(C)[C@@H]3CC[C@]12C`, the IC50 is 15.5 µM in test [1]; 36.8 µM in test [2]; 48.4 µM in test [3]; more than 100 µM in test [4]; 29.1 µM in test [5]; 26.2 µM in test [6].
Consider `CC(C)(O)CCC[C@@](C)(O)[C@H]1CC[C@]2(C)[C@@H]1[C@H](O)C[C@@H]1[C@@]3(C)C/C(=C\c4ccc([N+](=O)[O-])cc4)C(=O)C(C)(C)[C@@H]3CC[C@]12C`, for which the IC50 in test [1] was 22.2 µM; in test [2], 30.8 µM; in test [3], 19.7 µM; in test [4], more than 100 µM; in test [5], 28.2 µM; in test [6], 22.2 µM.
On to `CC(C)(O)CCC[C@@](C)(O)[C@H]1CC[C@]2(C)[C@@H]1[C@H](O)C[C@@H]1[C@@]3(C)CC[C@H](OC(=O)C4CCN(C(=O)OC(C)(C)C)CC4)C(C)(C)[C@@H]3CC[C@]12C`, for which the IC50 in test [1] was 11 µM; in test [2] it was 25.8 µM; in test [3] it was 10.8 µM; in test [4], more than 100 µM; in test [5] it was 18.2 µM; in test [6] it was 22.2 µM.
As for `CC(C)(O)CCC[C@@](C)(O)[C@H]1CC[C@]2(C)[C@@H]1[C@H](O)C[C@@H]1[C@@]3(C)C/C(=C\c4ccc(C(F)(F)F)cc4)[C@H](O)C(C)(C)[C@@H]3CC[C@]12C`, the IC50 was more than 100 µM in test [1]; more than 100 µM in test [2]; 45.6 µM in test [3]; more than 100 µM in test [4]; more than 100 µM in test [5]; more than 100 µM in test [6].
For `CC(C)(O)CCC[C@@](C)(O)[C@H]1CC[C@]2(C)[C@@H]1[C@H](O)C[C@@H]1[C@@]3(C)CC[C@H](OC(=O)C4CCCNC4)C(C)(C)[C@@H]3CC[C@]12C` (some centres not stated), the IC50 is 14 µM in test [1]; 13.1 µM in test [2]; 5.44 µM in test [3]; more than 100 µM in test [4]; 12.1 µM in test [5]; 12.5 µM in test [6].
For `CC(C)(O)CCC[C@@](C)(O)[C@H]1CC[C@]2(C)[C@@H]1[C@H](O)C[C@@H]1[C@@]3(C)C/C(=C\c4cccc(F)c4)C(=O)C(C)(C)[C@@H]3CC[C@]12C`, the IC50 is 14.8 µM in test [1]; 49.5 µM in test [2]; 55.6 µM in test [3]; more than 100 µM in test [4]; 31.8 µM in test [5]; 13.3 µM in test [6].
As to `CC(C)(O)CCC[C@@](C)(O)[C@H]1CC[C@]2(C)[C@@H]1[C@H](O)C[C@@H]1[C@@]3(C)CC[C@H](NC(=O)C4CCCNC4)C(C)(C)[C@@H]3CC[C@]12C` (some centres not stated), the IC50 in test [1] was 18.5 µM; in test [2] it was 30.8 µM; in test [3] it was 11.6 µM; in test [4] it was more than 100 µM; in test [5] it was 29.9 µM; in test [6], 20.6 µM.
Take `CC(C)(O)CCC[C@@](C)(O)[C@H]1CC[C@]2(C)[C@@H]1[C@H](O)C[C@@H]1[C@@]3(C)C/C(=C\c4ccc(Br)cc4)C(=O)C(C)(C)[C@@H]3CC[C@]12C`: the IC50 was 8.45 µM in test [1]; 16.6 µM in test [2]; 23.1 µM in test [3]; more than 100 µM in test [4]; 21.4 µM in test [5]; 13.8 µM in test [6].
As to `CC(C)(O)CCC[C@@](C)(O)[C@H]1CC[C@]2(C)[C@@H]1[C@H](O)C[C@@H]1[C@@]3(C)C/C(=C\c4cccc([N+](=O)[O-])c4)[C@H](O)C(C)(C)[C@@H]3CC[C@]12C`, the IC50 in test [1] is more than 100 µM; in test [2] it was 75.2 µM; in test [3], 44.9 µM; in test [4], more than 100 µM; in test [5], more than 100 µM; in test [6] it was more than 100 µM.
Consider `CC(C)(O)CCC[C@@](C)(O)[C@H]1CC[C@]2(C)[C@@H]1[C@H](O)C[C@@H]1[C@@]3(C)C/C(=C\c4ccc(F)cc4F)[C@H](O)C(C)(C)[C@@H]3CC[C@]12C`, for which the IC50 in test [1] was 13.2 µM; in test [2] it was 24.4 µM; in test [3] it was 21.4 µM; in test [4], more than 100 µM; in test [5], 30.4 µM; in test [6], 12.6 µM.
